Values of other authors in patent US9399044B2, “Antimicrobial cationic polyamines” (International Business Machines Corporation, priority 2014, dated 2016).

System: mouse
Settings: commercially available compounds, source NIH
In the case of `NNC(=O)c1ccncc1` [Isoniazid], the “Mouse Intravenous LD50” value is given as 149 mg/kg. For `CC[C@@H](CO)NCCN[C@@H](CC)CO` [Ethambutol], the “Mouse Intravenous LD50” value is given as 240 mg/kg. In the case of `CN(Cc1cnc2nc(N)nc(N)c2n1)c1ccc(C(=O)N[C@@H](CCC(=O)O)C(=O)O)cc1` [Methotrexate], the “Mouse Intravenous LD50” value is listed as 65 mg/kg. For `CO[C@H]1/C=C/O[C@@]2(C)Oc3c(C)c(O)c4c(O)c(c(/C=N/N5CCN(C)CC5)c(O)c4c3C2=O)NC(=O)/C(C)=C\C=C\[C@H](C)[C@H](O)[C@@H](C)[C@@H](O)[C@@H](C)[C@H](OC(C)=O)[C@@H]1C` [Rifampin], the “Mouse Intravenous LD50” value is listed as 260 mg/kg. For `CN1CCCC1c1cccnc1` (centres unmarked) [Nicotine], the “Mouse Intravenous LD50” value is listed as 0.3 mg/kg.
